From patent publication US20230233515A1, “PHOTODYNAMIC ANTI-GRAM-POSITIVE BACTERIAL ACTIVITY OF PHARMACEUTICAL-GRADE ROSE BENGAL” (priority 2021, published 2023)
Values joined by “and” are separate entries in the source; they are usually repeats but may differ in a detail not shown here. Equal values may be shown once.

Experiments:
Enterococcus faecalis = assay: MIC, broth dilution; assay type: cell-based; details: drug-susceptible and drug-resistant incl. vancomycin-resistant strains; entries 17-21
Text: (§1) All studies were done in triplicate. […] “g” = MIC was not determined.

[1] = tested on: Gram-positive Bacillus spp.; assay: MIC, broth dilution; assay type: cell-based; details: illumination; entries 1-3 of Table 1
Text: as §1

Mycobacterium spp. = assay: MIC, broth dilution; assay type: cell-based
Text: as §1

Staphylococcus aureus = assay: MIC, broth dilution; assay type: cell-based
Text: as §1

[2] = tested on: B.subtilis, B.cereus, and S.aureus; assay: MIC, agar dilution; assay type: cell-based; details: fluorescent light; entries 1-4 in Table 2; read-out: MIC (growth inhibition), agar dilution
Text: All studies were done in triplicate. […] MBC: minimum bactericidal concentrations (µg/mL).
We observed that under the illumination conditions the MIC values of RB determined by the agar dilution method are lower than those determined by the broth dilution method (Table 1).

[3] = tested on: biofilms of S.aureus 6508; assay: Anti-biofilm assay; assay type: cell-based, Staphylococcus aureus; details: for viable bacteria in biofilm: dark condition
Procedure: We applied linezolid as a positive control at very high concentration of 600 µg/mL (>100xMIC for the planktonic cells) in our biofilm assays.
The biofilms were generated on 12-well plates by incubating each bacterium for five days. The planktonic bacteria in the culture media were gently removed, and fresh media were placed. […] An aliquot of each culture was diluted (x10,000 or x100,000) on agar plates at 37° C. for 24 h. CFU/mL was counted.

[4] = tested on: biofilms of S.aureus 71080 (VRS8); assay: Anti-biofilm assay; assay type: cell-based, Staphylococcus aureus; details: fluorescent light
Procedure: Here, we examined efficacy of RB against biofilms of a drug-susceptible S.aureus 6508™, and drug-resistant S.aureus 71080 (VRS8) and E.faecium NR-32065 under the florescent light and dark conditions.
The biofilms were generated on 12-well plates by incubating each bacterium for five days. The planktonic bacteria in the culture media were gently removed, and fresh media were placed. […] An aliquot of each culture was diluted (x10,000 or x100,000) on agar plates at 37° C. for 24 h. CFU/mL was counted [47, 69].

[5] = tested on: air-exposed biofilms of S.aureus BAA-44™; assay: Air-exposed biofilms on agar plate; assay type: cell-based, Staphylococcus aureus; details: for CFU/mL (Dilution 5.8 × 10^11): treated at 0 and 30 min, 1 h, 17W fluorescent light, counted after 24 h at 37° C.
Procedure: The data of Table 3, below, summarize the effect of RB on air-exposed biofilms of a MRSA, Saureus BAA-44™, under fluorescent light (17 W, 1 h, 0.57 KJ/cm^2). Spraying RB (5.0 µg/mL or 10 µg/mL solution, 250 µL (twice)) and fluorescent light exposure (for 1 h) eradicated significant viable bacteria in the biofilms with a 4-log reduction (determined at a dilution of 5.8×10^9).
The bacteria (about 1.0x10^4) were spread on an agar plate and incubated in an oven at 37° C. for 2 days. The air-exposed biofilms on an agar plate were treated with PV-10. After 1 h under fluorescent light (0.57 KJ/cm^2), saline (2 mL) was added to the agar surface. The bacterial suspension ([…]) was taken into a sterile tube, and serial dilutions were performed. The diluted sample ([…]) was spread on agar plates and incubated at 37° C. for 24 h CFU/mL were counted.

[6] = Cytotoxicity with Vero cells under fluorescent light (confluence); details: African green monkey, selectivity index (SI), cytotoxicity versus antibacterial activity, 1 h treatment time
Procedure: (§2) FIG. 5 is a graph showing the time in hours (h) for cell confluence at four concentrations of HB-RBf (zero µM, 100 µM, 200 µM and 300 µM) when irradiated under fluorescent light;
(§3) Cytotoxicity assays for RB in Vero cells were performed in a 24-well plate.
(§4) Images were collected by AMG EVOS xl transmitted light imaging microscope. […] (5% CO2).

Vero cells = assay: as above; details: fluorescent light; for confluence lost: 200 µM
Procedure: as §2, §3, §4

[7] = Behaviour in water at stomach pH; assay type: physicochemical; details: water solution having the acidic pH value of the human stomach
Text: For example, the highly acidic gastric environment (pH 1.5-2 in the fasted state; pH 3-6 in the fed state) rises rapidly to about pH 6 in the duodenum and increases along the small intestine to pH 7.4 at the terminal ileum. The pH value in the cecum drops just below pH 6 and again rises in the colon reaching pH 6.7 at the rectum [Hua, Front Pharmacol 11: Article 524 (April 2020)].

[8] = tested on: Staphylococcus epidermidis; assay: MIC, broth dilution; details: aerobic condition; entry 16
Procedure: (§5) We have reinvestigated the bactericidal activity of pharmaceutical-grade of RB against a battery of Gram-positive and -negative aerobic bacteria including Mycobacterium spp. and a Saccharomyces sp. under different light sources (fluorescence, LED, and sun light) and in a dark condition. Fluorescent light used was 17W (1,647 lumens, 63.8 cm^2) and LED was a 9.5 W (800 lumens, 28.3 cm^2), specifics about which are discussed hereinafter.
(§6) Minimum inhibitory concentrations (MICs) were determined by broth dilution microplate alamar blue assay or by OD measurement. All compounds were stored in DMSO or saline (1 mg/100 µL concentration). This concentration was used as the stock solution for all MIC studies. Each compound from stock solution was placed in the first well of a sterile 96 well plate and a serial dilution was conducted with the culturing broth (total volume of 10 µL). The bacterial suspension at log phase (190 µL) was added to each well (total volume of 200 µL), and was incubated for 24 h at 37° C.

Streptococcus pneumoniae = assay: MIC, broth dilution; details: entry 24
Procedure: as §5, §6

[9] = tested on: three E.coli, two Pseudomonas aeruginosa, two Klebsiella pneumoniae, and two Acinetobacter baumannii strains; assay: MIC, broth dilution; details: entries 31-39
Procedure: as §5, §6

Bacteroides fragilis = assay: MIC, broth dilution; details: anaerobic Gram-negative bacterium
Text: We have reinvestigated the bactericidal activity of pharmaceutical-grade of RB against a battery of Gram-positive and -negative aerobic bacteria including Mycobacterium spp. and a Saccharomyces sp. under different light sources (fluorescence, LED, and sun light) and in a dark condition. Fluorescent light used was 17W (1,647 lumens, 63.8 cm^2) and LED was a 9.5 W (800 lumens, 28.3 cm^2), specifics about which are discussed hereinafter. In the studies under sunlight through an architectural window, the 96-well plates were placed on the east side of the building (the BSL-2 lab on the 5th floor, College of Pharmacy, University of Tennessee Health Science Center, Memphis, TN, USA) and the growth inhibition studies were performed between 8 AM and 5 PM (on June 18th, 2021).
Minimum inhibitory concentrations (MICs) were determined by broth dilution microplate alamar blue assay or by OD measurement. All compounds were stored in DMSO or saline (1 mg/100 µL concentration). This concentration was used as the stock solution for all MIC studies. Each compound from stock solution was placed in the first well of a sterile 96 well plate and a serial dilution was conducted with the culturing broth (total volume of 10 µL). […] The absorbance of each well was also measured at 570 and 600 nm via UV-Vis.

S.aureus 6538™ = assay: Time-kill kinetic assay; details: in 1 minute; 4.6 × 10^8 CFU; fluorescent light
Procedure: (§7) Thus, the time-course experiments on these bacteria were conducted under the fluorescent light for 2 h (0-1,130 J/cm^2) at concentrations of about 2 to about 8-fold the MIC (RB). Reference molecules used were linezolid (10 µg/mL) and ciprofloxacin (10 µg/mL) for the Gram-positive bacteria and amikacin (10 µg/mL) and meropenem (10 µg/mL) for the Gram-negative bacterium.
(§8) Time-kill kinetics assay for antimicrobial agents was performed using CLSI guidelines with a minor modification. The multiple time points in time-kill kinetics assays for RB and the reference molecules were performed. The bacterial culture grown in the broth was diluted to a concentration between 1 × 10^8 and 5.0 × 10^9 CFU/mL.
(§9) A stock dilution of the antimicrobial test substance was prepared at approximately 2- to about 8-fold the MIC values. The test compounds were inoculated with equal volumes of the specified bacteria placed in a 96-well plate. The microtiter plates were incubated at 37° C. and duration (1-120 min) under the fluorescent light (conditions are summarized in the figure legend). An aliquot of the culture medium was taken from each well and a serial dilution was performed. The diluted culture was incubated at 37° C. and CFU/mL were counted.

S.aureus BAA-44 = assay: Time-kill kinetic assay; details: twice the RB MIC; fluorescent light
Procedure: as §7, §8, §9

[10] = tested on: Gram-positive and -negative bacteria; assay: Time-kill kinetics, general statements
Procedure: as §8
A stock dilution of the antimicrobial test substance was prepared at approximately 2- to about 8-fold the MIC values. The test compounds were inoculated with equal volumes of the specified bacteria placed in a 96-well plate. The microtiter plates were incubated at 37° C. and duration (1-120 min) under the fluorescent light (conditions are summarized in the figure legend). An aliquot of the culture medium was taken from each well and a serial dilution was performed. The diluted culture was incubated at 37° C. and CFU/mL were counted. Bactericidal activity was defined as greater than 3 log-fold decrease in colony forming units [64].

S.cerevisiae = assay: Minimal bactericidal concentration (MBC) assay
[11] = tested on: human epidermal keratinocytes (HEKa); assay: Cytotoxicity assay with HEKa cells (stratified epithelium, H&E); details: fluorescent light
Procedure: In these studies, HEKa cells were differentiated to a stratified squamous epithelium via air-liquid interface; this type of epithelium can be applied as a physiological tissue to study epidermal necrolysis by the treatment of RB.
Cytotoxicity of PV-10 against Human Epidermal Keratinocytes (HEKa) were evaluated in a hanging cell culture insert in a 24-well plate. HEKa (4x10^5 cells/mL, 0.5 mL) cell suspension) was placed into the insert where the outside of the inserts was filled with EpiGRO™ Complete Culture Media (1.5 mL) [67]. The cell suspension was incubated at 37° C. overnight (about 18 hours).
The next day, without removing the original medium, an additional 0.5 mL of the medium was added to the inside of each insert and incubated at 37° C. for 2 days. High quality HEKa approached 100% confluence by the third day of submerged culture. On the 4th day, the media was gently aspirated from each insert. The skin cell cultures were maintained at the air/liquid interface.
The skin culture was incubated at 37° C. for an additional 10 days. During the 10-day incubation, the media was changed every other day and any bubbles were removed from beneath the insert membrane.
After 25 days of 3D skin culture, approximately 6 to 8 layers of live epithelium were produced. […]

O=C([O-])c1c(Cl)c(Cl)c(Cl)c(Cl)c1-c1c2cc(I)c(=O)c(I)c-2oc2c(I)c([O-])c(I)cc12.[Na+].[Na+] [RB, 4,5,6,7-tetrachloro-2′,4′,5′,7′-tetraiodo-fluorescein]
MIC (killing concentration) (Enterococcus faecalis): 0.39 to 0.78 µg/mL
MIC (killing concentration) [1]: 0.39 to 0.78 µg/mL
killing concentration (MIC) (Mycobacterium spp.; dark conditions): 25000 to 50000 µg/mL
MIC (Mycobacterium spp.; illuminated conditions, 5 Mycobacterium spp., entries 25-29): 12.5 to 25 µg/mL
killing concentration (MIC) (Mycobacterium spp.; illumination conditions): 12500 to 25000 µg/mL
MIC (killing concentration) (Staphylococcus aureus; 7 methicillin-resistant S.aureus (MRSA) strains, fluorescent or LED light): 0.78 to 3.1 µg/mL
concentration required to kill >99% of bacteria (Staphylococcus aureus; MIC standard strain, illumination, entry 4): 1.6 µg/mL
MIC (killing concentration) (Staphylococcus aureus; vancomycin-resistant S.aureus strains, either lighting condition): below 1.0 µg/mL
MIC [2]: 0.01 to 0.1 µg/mL
viable bacteria in biofilm ([3]; 50.0 µg/mL (2xMIC under dark)): significantly reduced the number of viable bacteria
biofilm eradication, log reduction ([3]; 60.0 µg/mL (77×MIC), fluorescent light): > 5 log
CFU counted in biofilm ([3]; 100 µg/mL, fluorescent light): No CFU were counted
viable bacteria in biofilm ([3]; 1,000 µg/mL): No viable bacteria
biofilm, log reduction of viable bacteria ([4]; 10.0 µg/mL): over 6 log
CFU counted in biofilm ([4]; 30.0 µg/mL or higher): No CFU were counted
colonies counted (Dilution 5.8 × 10^11) ([5]; first column, PV-10 5.0 µg/mL): 0 (0 colony)
CFU/mL (Dilution 5.8 × 10^11) ([5]; first column, PV-10 5.0 µg/mL): 0 (0 colony) CFU/mL
colonies counted (Dilution 5.8 × 10^11) ([5]; first column, PV-10 10 µg/mL): 0 (0 colony)
CFU/mL (Dilution 5.8 × 10^11) ([5]; first column, PV-10 10 µg/mL): 0 (0 colony) CFU/mL
colonies counted (Dilution 5.8 × 10^11) ([5]; second column, PV-10 5.0 µg/mL): 35 colonies
CFU/mL (Dilution 5.8 × 10^11) ([5]; second column, PV-10 5.0 µg/mL): 9.4 × 10^10 CFU/mL
colonies counted (Dilution 5.8 × 10^11) ([5]; second column, PV-10 10 µg/mL): 17 colonies
CFU/mL (Dilution 5.8 × 10^11) ([5]; second column, PV-10 10 µg/mL): 4.5 × 10^10 CFU/mL
log reduction of viable bacteria in air-exposed biofilms ([5]; spray 5.0 or 10 µg/mL solution, 250 µL twice, fluorescent light 1 h, dilution of 5.8×10^9): 4 log
selectivity ratio at 1 h ([6]; for Gram-negatives): > 7.9
selectivity ratio at 1 h ([6]; for Gram-positives): > 62.5
confluency lost (Vero cells; 100 µM (97.4 µg/mL), 4 h): ~50%
state of the monolayer (Vero cells; 100 µM, 1 h exposure): intact
confluence lost (Vero cells; 1 h): About 18%
confluence lost (Vero cells; 4 h): over 80%
time to complete loss of the cell viability (Vero cells; 300 µM): ≤ 2 h
concentration tolerated by Vero cells (Vero cells; 1 h): 100 to 200 µM
appearance of solution at acidic pH [7]: rapid clouding of the admixture and clumping
bactericidal activity [8]: effectively killed
susceptibility to RB (Streptococcus pneumoniae): showed resistance
MIC [9]: 50 µg/mL and > 100 µg/mL
concentration tolerated (Bacteroides fragilis): ≥ 100 µg/mL
log reduction of CFU (S.aureus 6538™): 6 log
time to kill (S.aureus BAA-44): ≤ 2 min
time to kill ([10]; Gram-negative bacteria): 5 min
time to kill ([10]; Gram-positive bacteria): 1 to 2 min
log reduction ([10]; within 2 hours of contact, preliminary studies): 6 log
concentration not killing the yeast (S.cerevisiae; dark condition): > 500 µg/mL
MBC (to kill >99% of the yeast) (S.cerevisiae; fluorescent light): 400 µg/mL
necrosis on the surface tissue ([11]; 200 µM, 1 h): Some necrosis
necrosis of the stratum corneum cells ([11]; 10 and 100 µM, 1 h exposure): did not cause necrosis
